Assay results taken from the supplement of paper PMC10307832.

Tests used:
Motesanib + Trametinib = compound: CC1(C)CNc2cc(NC(=O)c3cccnc3NCc3ccncc3)ccc21 [Motesanib] + CC(=O)Nc1cccc(-n2c(=O)n(C3CC3)c(=O)c3c(Nc4ccc(I)cc4F)n(C)c(=O)c(C)c32)c1 [Trametinib] (partner 0.02 µM); test: relative viability (nuclei count vs DMSO), 5 days (fraction); higher = more cells survive
Method in brief: (§1)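 For relative viability, nuclei counts in treated wells were divided by those in vehicle wells. Lung cancer cell lines had been pin-tool dosed in 1536-well plates the day after seeding and cultured for 5 days, then fixed and stained in one step (final 0.05% Triton X-100, 1% formaldehyde, 1 ug/ml Hoechst) and imaged at 4×. Doses were one drug alone or a fixed anchor-drug dose plus five library-drug doses (not always all listed) in √10 steps, and values are duplicate-plate medians.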

[1] = compound: C[C@@]1(C(=O)Nc2ccc(F)nc2)CCCN1c1nc(Nc2cc(C3CC3)n[nH]2)c2cccn2n1 + Cc1nc(Nc2ncc(C(=O)Nc3c(C)cccc3Cl)s2)cc(N2CCN(CCO)CC2)n1 [Dasatinib] (partner 0.075 µM); test: as above
Method in brief: as §1

| Cell Line | relative viability (Motesanib + Trametinib; first compound 0.01 µM) | relative viability (Motesanib + Trametinib; first compound 0.03162 µM) | relative viability (Motesanib + Trametinib; first compound 0.1 µM) | relative viability (Motesanib + Trametinib; first compound 0.3162 µM) | relative viability (Motesanib + Trametinib; first compound 1 µM) | relative viability ([1]; first compound 0.04 µM) | relative viability ([1]; first compound 0.1265 µM) | relative viability ([1]; first compound 0.4 µM) | relative viability ([1]; first compound 1.265 µM) |
| --- | --- | --- | --- | --- | --- | --- | --- | --- | --- |
| HCC-366 | 0.396 | 0.302 | 0.282 | 0.385 | 0.334 | 0.374 | 0.141 | 0.201 | 0.061 |
| EMC-BAC-2 | 0.756 | 0.909 | 0.861 | 0.797 | 0.948 | 0.242 | 0.212 | 0.136 | 0.167 |
| NCI-H2405 | 0.53 | 0.603 | 0.625 | 0.684 | 0.704 | 0.211 | 0.177 | 0.185 | 0.186 |
| NCI-H358 | 0.13 | 0.137 | 0.129 | 0.163 | 0.138 | 0.128 | 0.123 | 0.103 | 0.124 |
| NCI-H1944 | 0.438 | 0.442 | 0.408 | 0.455 | 0.384 | 0.173 | 0.154 | 0.145 | 0.166 |
| NCI-H1648 | 0.433 | – | – | 0.566 | 0.471 | – | – | – | – |
| EPLC-272H | 0.287 | 0.289 | 0.286 | 0.299 | 0.341 | 0.275 | – | 0.157 | 0.084 |
| NCI-H1915 | 0.209 | 0.338 | 0.318 | 0.288 | 0.365 | 0.302 | 0.3 | 0.288 | 0.268 |
| NCI-H596 | 0.68 | 0.918 | 0.761 | 0.798 | 0.958 | 0.552 | 0.439 | 0.415 | 0.372 |
| NCI-H322M | 0.471 | 0.558 | 0.554 | 0.527 | 0.545 | 0.239 | 0.197 | 0.241 | 0.225 |
| NCI-H2228 | 0.395 | 0.764 | 0.459 | 0.505 | 0.466 | 0.414 | 0.278 | 0.22 | 0.208 |
| NCI-H2342 | 0.933 | 0.715 | 0.907 | 0.77 | 0.959 | 0.356 | 0.26 | 0.294 | 0.264 |
| NCI-H647 | 0.452 | 0.533 | 0.42 | 0.427 | 0.491 | 0.361 | 0.0884 | 0.105 | 0.214 |
| SK-MES-1 | 0.575 | 0.587 | 0.593 | 0.565 | 0.617 | 0.27 | 0.244 | 0.159 | 0.153 |
| NCI-H2170 | 0.861 | 0.872 | 0.91 | 0.909 | 0.979 | 0.572 | 0.564 | 0.47 | 0.414 |
| NCI-H2085 | 0.513 | 0.537 | 0.521 | 0.535 | 0.526 | 0.289 | 0.309 | 0.187 | 0.178 |
| SW 1573 | 0.613 | 0.503 | 0.721 | 0.593 | 0.628 | 0.494 | 0.275 | 0.213 | 0.114 |
| NCI-H727 | 0.381 | 0.363 | 0.385 | 0.379 | 0.354 | 0.278 | 0.182 | 0.273 | 0.229 |
